≈ marks a conversion by molar mass, not a printed value.

Our source for the inhibition in vivo and MIC values is patent publication US5190961A, “Thiourea derivatives and antimicrobial agent and antulcer agent containing the same” (Terumo Kabushiki Kaisha, priority 1990, dated 1993).

One experiment has as its system ethanol peptic ulcer. As to the kind of experiment: Inhibitory action against ethanol peptic ulcer. Format: in vivo. The note with it: Rattus norvegicus; SD male rats, 32 mg/kg oral, 1 hour before ethanol 0.5 ml/100 g; read-out: Inhibitory action against ethanol peptic ulcer, Percent inhibition of p.u. formation. Here is the method: (2) Inhibitory action against ethanol peptic ulcer
SD male rats (weighing 200-300 g) were fasted for 24 hours before oral administration of a thiourea derivative of the invention at a dose of 32 mg/kg bodyweight. One hour later, ethanol was orally given in a volume of 0.5 ml/100 g bodyweight. One hour after treating with ethanol, the rat was sacrificed with ether, and the stomach was excised and treated with formalin. Area (mm^2) of the lesions developed in the glandular stomach area was then measured. Results were expressed in sum of the lesions per animal which was referred to as peptic ulcer index.
(§1) It was confirmed that the thiourea derivatives of the invention not shown in the table also have a similar antiulcer activity.
Percent inhibition of the peptic ulcer formation (%) as shown in the table was calculated according to the same equation as mentioned above.

For experiment [1], the system named is peptic ulcer induced by water immersion restraint stress. As to the kind of experiment: Inhibitory action against the peptic ulcer induced by water immersion restraint stress. Type of experiment: in vivo. The note with it: Rattus norvegicus; SD male rats, 32 mg/kg oral, water immersion restraint stress 23° C., 7 hours; read-out: Inhibitory action against stress peptic ulcer, Percent inhibition of p.u. formation. Here is the method:
(1) Inhibitory action against the peptic ulcer induced by water immersion restraint stress
SD male rats (weighing 200-300 g) were fasted for 24 hours before oral administration of a thiourea derivative of the invention at a dose of 32 mg/kg bodyweight. One hour later, the animal was put in a stress cage and loaded with water immersion restraint stress in a water bath at 23° C. Seven hours after loading with the stress, the rate was sacrificed with ether, and the stomach was excised and treated with formalin. Area (mm^2 ) of the lesions developed in the glandular stomach area was then measured. Results were expressed in sum of the lesions per animal which was referred to as peptic ulcer index.
as §1
Percent inhibition of the peptic ulcer formation (%) as shown in the table was calculated according to the following equation: [formula]

A further experiment has as its system Helicobacter pylori. As to the kind of experiment: Antimicrobial activity against Helicobacter pylori (MIC). Type of experiment: cell-based, Helicobacter pylori strain NCTC 11916. The following applies: NCTC11916, strain NCTC 11916, twofold dilution, 37° C., 3-5 days, O2 about 5%. Here is the method:
(3) Antimicrobial activity against Helicobacter pylori
Antimicrobial activity of the thiourea derivatives according to the invention against Helicobacter pylori (or Campylobacter pylori) was evaluated by employing strain NCTC 11916 as a Helicobacter test organism and determining MIC (minimum inhibitory concentration) for the strain with the thiourea derivative.
The Helicobacter pylori was pre-incubated in a plate medium for 3-5 days. The medium was prepared by dissolving 38 g of a Mueller-Hinton medium (manufactured by Difco) in an appropriate amount of distilled water, sterilizing the solution in an autoclave, adding to the solution 50 ml of a horse hemolysis solution (manufactured by Nippon Seibutu Zairyou Center: Horse defibrinized blood, hemolyzed by a lyophilization treatment) and 2 ml of Skirrow, a Campylobacter selective supplement (manufactured by OXOID) containing vancomycin (5 mg), trimethoprim (2.5 mg) and polymyxin B (1250 IU) per vial (2 ml), and further an appropriate amount of distilled water to a volume of 1L in total and expanding and solidifying the solution on a dish. These antibiotics were contained for inhibition of the growth of microorganism other than Helicobacter pylori. The Helicobacter pylori pre-incubated under slightly aerobic conditions (an O2 concentration of about 5%) at 37° C. for 3-5 days was suspended in a physiological saline solution in a concentration of approximately 10^8 organisms/ml. Approximately 10-20 μl of the suspension was inoculated on a medium for MIC measurement in cross streaks. […] The DMSO solution was formed by the twofold dilution method. As in the pre-incubation, the Helicobacter pylori was cultured under slightly aerobic conditions at 37° C. for 3-5 days. After completion of the culture, growth of the microoranisms on the streaks was visually determined. The minimum concentration of the thiourea derivative in which no growth was observed was taken as MIC.
It was confirmed that the thiourea derivatives of the invention not shown in the table also have a similar antimicrobial activity.

`O=C(CCCNC(=S)Nc1ccc(Cl)cc1)NCCCOc1cccc(CN2CCCCC2)c1` [Example 4, 1-[3-[N-[3-[3-(piperidinomethyl)phenoxy]propyl]carbamoyl]propyl]-3-(p-chlorophenyl)thiourea]: the inhibition in vivo at 32 mg/kg in the experiment with ethanol peptic ulcer amounted to 78.2%; in experiment [1], 74.6%. The compound further yielded a minimal inhibitory concentration (MIC) against Helicobacter pylori of 6.25 µg/mL (≈ 12.4 µM).

In the case of `O=C(CCCNC(=S)NCCc1ccccc1)NCCCOc1cccc(CN2CCCCC2)c1` [Example 6], the results for the inhibition in vivo at 32 mg/kg (with ethanol peptic ulcer; in experiment [1]) were 84.4% and 76.9%, respectively. The compound further returned an MIC against Helicobacter pylori of 6.25 µg/mL (≈ 12.6 µM).

Regarding `COc1cccc(NC(=S)NCCCC(=O)NCCCOc2cccc(CN3CCCCC3)c2)c1` [Example 15, 1-[3-[N-[3-[3-(piperidinomethyl)phenoxy]propyl]carbamoyl]propyl]-3-(3-methoxyphenyl)thiourea], the inhibition in vivo at 32 mg/kg with ethanol peptic ulcer was 92.1%; in experiment [1], 78.3%. The same compound had a minimum inhibitory concentration (MIC) in the experiment on Helicobacter pylori of 6.25 µg/mL (≈ 12.5 µM).

Turning to `O=C(CCCCCNC(=S)Nc1ccccc1)NCCCOc1cccc(CN2CCCCC2)c1` [Example 28, 1-[5-[N-[3-[3-(piperidinomethyl)phenoxy]propyl]carbamoyl]pentyl]-3-phenylthiourea], the inhibition in vivo at 32 mg/kg stood at 75.5% in the experiment on ethanol peptic ulcer and 73.2% in experiment [1]. In addition, in the experiment on Helicobacter pylori, 12.5 µg/mL (≈ 25.2 µM) was the least that counted as inhibitory (MIC).

For `O=C(CCCNC(=S)NC1CCCCC1)NCCCOc1cccc(CN2CCCCC2)c1` [Example 5, 1-[3-[N-[3-[3-(piperidinomethyl)phenoxy]propyl]carbamoyl]propyl]-3-cyclohexylthiourea], the inhibition in vivo at 32 mg/kg in the experiment on ethanol peptic ulcer turned out to be 82.3%; in experiment [1], 70.5%. For the same compound, in the experiment with Helicobacter pylori, it took 6.25 µg/mL (≈ 13.2 µM) to inhibit growth (MIC).

On to `O=C(CCCNC(=S)Nc1ccccc1)NCCCOc1cccc(CN2CCCC2)c1` [Example 9, 1-[3-[N-[3-[3-(pyrrolidinomethyl)phenoxy]propyl]carbamoyl]propyl]-3-phenylthiourea], for which the inhibition in vivo at 32 mg/kg with ethanol peptic ulcer stood at 77.9%; in experiment [1] it was 58.6%. This compound displayed an MIC against Helicobacter pylori of 6.25 µg/mL (≈ 13.7 µM).

Regarding `O=C(CCCNC(=S)Nc1ccccc1C(F)(F)F)NCCCOc1cccc(CN2CCCCC2)c1` [Example 22, 1-[3-[N-[3-[3-(piperidinomethyl)phenoxy]propyl]carbamoyl]propyl]-3-(2-trifluoromethylphenyl)thiourea], the values for the inhibition in vivo at 32 mg/kg (in the experiment on ethanol peptic ulcer; in experiment [1]) were 76.4% and 83.3%, respectively. Further, inhibition of growth against Helicobacter pylori (MIC) required 6.25 µg/mL (≈ 11.6 µM).

`O=C(CCCNC(=S)Nc1ccccc1Oc1ccccc1)NCCCOc1cccc(CN2CCCCC2)c1` [Example 17, 1-[3-[N-[3-[3-(piperidinomethyl)phenoxy]propyl]carbamoyl]propyl]-3-(O-phenoxyphenyl)thiourea]: the figures for the inhibition in vivo at 32 mg/kg (in the experiment with ethanol peptic ulcer; in experiment [1]) were 73.3% and 62.2%, respectively. Also, the MIC in the experiment with Helicobacter pylori amounted to 12.5 µg/mL (≈ 22.3 µM).

For `CCCCNC(=S)NCCCC(=O)NCCCOc1cccc(CN2CCCCC2)c1` [Example 2], the inhibition in vivo at 32 mg/kg in the experiment on ethanol peptic ulcer is 75.7%; in experiment [1], 67.1%. The compound also registered an MIC with Helicobacter pylori of 6.25 µg/mL (≈ 13.9 µM).

As to `O=C(CCCNC(=S)Nc1ccccc1)NCCCOc1cccc(CN2CCCCC2)c1` [Example 3, 1-[3-[N-(3-[3-(piperidinomethyl)phenoxy]propyl]carbamoyl]propyl]-3-phenylthiourea], the inhibition in vivo at 32 mg/kg worked out at 88.7% in the experiment on ethanol peptic ulcer and 80.5% in experiment [1]. In addition, the minimal inhibitory concentration (MIC) in the experiment on Helicobacter pylori stood at 12.5 µg/mL (≈ 26.7 µM).

For the compound `O=C(CCCNC(=S)Nc1cccc2ccccc12)NCCCOc1cccc(CN2CCCCC2)c1` [Example 7, 1-[3-[N-[3-[3-(piperidinomethyl)phenoxy]-propyl]carbamoyl]propyl]-3-(1-naphthyl)thiourea], the inhibition in vivo at 32 mg/kg is 92% in the experiment with ethanol peptic ulcer and 88.3% in experiment [1]. Also, in the experiment with Helicobacter pylori, it took 6.25 µg/mL (≈ 12 µM) to inhibit growth (MIC).

As for `Cc1cc(C)c(NC(=S)NCCCC(=O)NCCCOc2cccc(CN3CCCCC3)c2)c(C)c1` [Example 12, 1-[3-[N-[3-[3-(piperidinomethyl)phenoxy]propyl]carbamoyl]propyl]-3-(2,4,6-trimethylphenyl)thiourea], the inhibition in vivo at 32 mg/kg is 80.2% in the experiment on ethanol peptic ulcer and 77.1% in experiment [1]. 6.25 µg/mL (≈ 12.2 µM) was the least that counted as inhibitory with Helicobacter pylori (MIC).

On to `COc1ccccc1NC(=S)NCCCC(=O)NCCCOc1cccc(CN2CCCCC2)c1` [Example 14, 1-[3-[N-[3-[3-(piperidinomethyl)phenoxy]propyl]-carbamoyl]propyl]-3-(O-methoxyphenyl)thiourea], for which the values for the inhibition in vivo at 32 mg/kg (in the experiment with ethanol peptic ulcer; in experiment [1]) were 94.3% and 91.2%, respectively. The compound also displayed an MIC in the experiment with Helicobacter pylori of 6.25 µg/mL (≈ 12.5 µM).

As to `O=C(CCCNC(=S)Nc1cccnc1)NCCCOc1cccc(CN2CCCCC2)c1` [Example 8], the inhibition in vivo at 32 mg/kg in the experiment with ethanol peptic ulcer was 65%; in experiment [1], 82.2%. The compound further showed an MIC against Helicobacter pylori of 12.5 µg/mL (≈ 26.6 µM).

As for `O=C(CCCNC(=S)Nc1ccccc1[N+](=O)[O-])NCCCOc1cccc(CN2CCCCC2)c1` [Example 23, 1-[3-[N-[3-[3-(piperidinomethyl)phenoxy]propyl]carbamoyl]propyl]-3-(O-nitrophenyl)thiourea], the results for the inhibition in vivo at 32 mg/kg (in the experiment on ethanol peptic ulcer; in experiment [1]) were 72.3% and 76.4%, respectively. In the experiment on Helicobacter pylori, the MIC was 6.25 µg/mL (≈ 12.2 µM).

In the case of `Cc1cc(C)cc(NC(=S)NCCCC(=O)NCCCOc2cccc(CN3CCCCC3)c2)c1` [Example 11, 1-[3-[N-[3-[3-(piperidinomethyl)phenoxy]propyl]carbamoyl]propyl]-3-(3,5-dimethylphenyl)thiourea], the inhibition in vivo at 32 mg/kg in the experiment with ethanol peptic ulcer stood at 92.8%; in experiment [1], 85.5%. In addition, in the experiment with Helicobacter pylori, it took 6.25 µg/mL (≈ 12.6 µM) to inhibit growth (MIC).

As to `O=C(CCCNC(=S)NCc1cccs1)NCCCOc1cccc(CN2CCCCC2)c1` [Example 27, 1-[3-[N-[3-[3-(piperidinomethyl)phenoxy]propyl]carbamoyl]propyl]-3-(2-thienylmethyl)thiourea], the inhibition in vivo at 32 mg/kg in the experiment on ethanol peptic ulcer stood at 88.2%; in experiment [1], 72.5%. In the experiment on Helicobacter pylori, this compound displayed an MIC of 6.25 µg/mL (≈ 12.8 µM).

As to `COc1ccc(NC(=S)NCCCC(=O)NCCCOc2cccc(CN3CCCCC3)c2)cn1` [Example 25, 1-[3-[N-[3-[3-(piperidinomethyl)phenoxy]propyl]carbamoyl]propyl]-3-[3-(6-methoxypyridyl)]thiourea], the inhibition in vivo at 32 mg/kg in the experiment with ethanol peptic ulcer was 72.5%; in experiment [1], 65.6%. For the same compound, in the experiment on Helicobacter pylori, it took 6.25 µg/mL (≈ 12.5 µM) to inhibit growth (MIC).

Take `CC(C)c1ccc(NC(=S)NCCCC(=O)NCCCOc2cccc(CN3CCCCC3)c2)cc1` [Example 13, 1-[3-[N-[3-[3-(piperidinomethyl)phenoxy]propyl]carbamoyl]propyl]-3-(p-isopropylphenyl)thiourea]: the inhibition in vivo at 32 mg/kg came to 90.2% in the experiment with ethanol peptic ulcer and 77.3% in experiment [1]. 6.25 µg/mL (≈ 12.2 µM) was the least that counted as inhibitory against Helicobacter pylori (MIC).

For `Cc1ccccc1NC(=S)NCCCC(=O)NCCCOc1cccc(CN2CCCCC2)c1` [Example 10, 1-[3-[N-[3-[3-(piperidinomethyl)phenoxyl]propyl]carbamoyl]propyl]-3-(O-methylphenyl)thiourea], the figures for the inhibition in vivo at 32 mg/kg (with ethanol peptic ulcer; in experiment [1]) were 94.2% and 82.2%, respectively. This compound had an MIC against Helicobacter pylori of 6.25 µg/mL (≈ 12.9 µM).

In the case of `CNC(=S)NCCCC(=O)NCCCOc1cccc(CN2CCCCC2)c1` [Example 1, 1-[3-[N-[3-[3-(piperidinomethyl)phenoxy]propyl]carbamoyl]propyl]-3-methylthiourea], the figures for the inhibition in vivo at 32 mg/kg (in the experiment on ethanol peptic ulcer; in experiment [1]) were 51.4% and 92.1%, respectively. Besides, in the experiment with Helicobacter pylori, it took 6.25 µg/mL (≈ 15.4 µM) to inhibit growth (MIC).

Turning to `O=C(CCCNC(=S)NCc1ccco1)NCCCOc1cccc(CN2CCCCC2)c1` [Example 26, 1-[3-[N-[3-[3-(piperidinomethyl)phenoxy]propyl]carbamoyl]propyl]-3-furfurylthiourea], the inhibition in vivo at 32 mg/kg stood at 90.3% with ethanol peptic ulcer and 74.4% in experiment [1]. This compound had a minimum inhibitory concentration (MIC) against Helicobacter pylori of 6.25 µg/mL (≈ 13.2 µM).

A word on the MIC: it is the smallest concentration in the dilution series that meets the test's criterion for growth inhibition.
